Measurements reported in patent US20150025132A1, “COMPOSITIONS AND METHODS FOR INHIBITING ENDOSPORES USING GREEN TEA POLYPHENOLS” (priority 2013, published 2015).

How the values were obtained:
B. cereus = assay: Inhibition of endospore germination (outgrowth), plating on nutrient agar; type: cell-based, Bacillus cereus; settings: for Average Inhibition of Spore Germination: Table 2, B. cereus, 2 hours treatment; for Average Percent Inhibition of B. cereus: Table 3 (FIG. 2)
Method: (§1) Heated samples were treated with 1, 5, 10% of GTP (mixed green tea polyphenols), LTP (lipophilic green tea polyphenols), EGCg (epigallocatechingallate), or EGCg-Stearate for 2 hours, diluted and plated onto nutrient agar plates, and incubated at 37° C. for 24 hours. Non-starved cells and starved cells without treatment were used as controls.
(§2) Germination, specifically outgrowth, of purified endospores in Bacillus cereus, B. megaterium, and B. subtilis was studied by treating the bacteria with four different green tea polyphenols: GTP (mixed green tea polyphenols), LTP (lipophilic green tea polyphenols), EGCg (epigallocatechingallate), and EGCg-Stearate.

B. megaterium = assay: as above; type: cell-based, Bacillus megaterium; settings: for Average Inhibition of Spore Germination: Table 2, B. megaterium, 2 hours treatment; for Average Percent Inhibition of B. megaterium: Table 4 (FIG. 3)
Method: as §1, §2

B. subtilis = assay: as above; type: cell-based, Bacillus subtilis; settings: for Average Inhibition of Spore Germination: Table 2, B. subtilis, 2 hours treatment; for Average Percent Inhibition of B. subtilis: Table 5 (FIG. 4)
Method: as §1, §2

[1] = system: Bacillus megaterium spores; assay: Viability of heat-treated spores after treatment, colony count on nutrient agar; type: cell-based; settings: 10%
Method: Bacillus megaterium spores were induced through process of starvation for 2 hours in sterile deionized water and then heated at 90° C. for 20 minutes. The heated samples were treated with 10% of EGCG or EGCG-ester for 1 hour or 24 hours respectively and then plated onto nutrient agar plates with a countable range of 150 to 300 CPU (colony counting unit). The non-starved cells and starved cells without treatment were used as controls.

O=C(O[C@@H]1Cc2c(O)cc(O)cc2O[C@@H]1c1cc(O)c(O)c(O)c1)c1cc(O)c(O)c(O)c1 [EGCg, (−)-epigallocatechin-3-gallate]
Average Inhibition of Spore Germination (B. cereus; 1%): 16.9% | Average Inhibition of Spore Germination (B. cereus; 5%): 25.7% | Average Inhibition of Spore Germination (B. cereus; 10%): 33.0% | Average Percent Inhibition of B. cereus (B. cereus; concentration 1%): 94.18% | Average Percent Inhibition of B. cereus (B. cereus; concentration 5%): 91.68% | Average Percent Inhibition of B. cereus (B. cereus; concentration 10%): 99% | Average Inhibition of Spore Germination (B. megaterium; 10%): 100.0% | Average Percent Inhibition of B. megaterium (B. megaterium; concentration 1%): 96.39% | Average Percent Inhibition of B. megaterium (B. megaterium; concentration 5%): 99.48% | Average Percent Inhibition of B. megaterium (B. megaterium; concentration 10%): 99.85% | Average Inhibition of Spore Germination (B. subtilis; 1%): 52.9% | Average Inhibition of Spore Germination (B. subtilis; 5%): 45.1% | Average Inhibition of Spore Germination (B. subtilis; 10%): 66.1% | Average Percent Inhibition of B. subtilis (B. subtilis; concentration 1%): 99.95% | Average Percent Inhibition of B. subtilis (B. subtilis; concentration 5%): 100% | Inhibition of viability of Bacillus megaterium spores compared to the control ([1]; after 24 hours-incubation at 37° C.): 90% | Viable cells or colonies of Bacillus megaterium detected ([1]; both 1 hour and 24 hours treated samples): no viable cells or colonies

CCCCCCCCCCCCCCCCCC(=O)Oc1c(O)cc([C@H]2Oc3cc(O)cc(O)c3C[C@H]2OC(=O)c2cc(O)c(O)c(O)c2)cc1O [EGCg-Stearate, (−)-epigallocatechin-3-gallate (EGCG) esterified at the 4′ position with stearic acid]
Average Inhibition of Spore Germination (B. cereus; 1%): 72.6% | Average Inhibition of Spore Germination (B. cereus; 5%): 56.6% | Average Inhibition of Spore Germination (B. cereus; 10%): 90.5% | Average Percent Inhibition of B. cereus (B. cereus; concentration 1%): 88.81% | Average Percent Inhibition of B. cereus (B. cereus; concentration 5%): 98.49% | Average Percent Inhibition of B. cereus (B. cereus; concentration 10%): 98% | Average Inhibition of Spore Germination (B. megaterium; 1%): 70.5% | Average Inhibition of Spore Germination (B. megaterium; 5%): 75.0% | Average Inhibition of Spore Germination (B. megaterium; 10%): 79.0% | Average Percent Inhibition of B. megaterium (B. megaterium; concentration 1%): 99.84% | Average Percent Inhibition of B. megaterium (B. megaterium; concentration 5%): 91.91% | Average Percent Inhibition of B. megaterium (B. megaterium; concentration 10%): 97.14% | Average Inhibition of Spore Germination (B. subtilis; 1%): 55.0% | Average Inhibition of Spore Germination (B. subtilis; 5%): 58.1% | Average Inhibition of Spore Germination (B. subtilis; 10%): 69.2% | Average Percent Inhibition of B. subtilis (B. subtilis; concentration 1%): 99.93% | Average Percent Inhibition of B. subtilis (B. subtilis; concentration 5%): 98.77%
